# Data: publication PMC5218480 (PLoS ONE, 2017)
# Test system: MV-4-11 cells
# Assay: Gene expression microarray analysis (Affymetrix PrimeView) and GSEA
# Format: cell-based, human
# Parameters: RFU PODN (11730768_x_at) / Fold change /veh PODN (11730768_x_at) / RFU LINC00158 (11744669_a_at) / Fold change /veh LINC00158 (11744669_a_at) / RFU DUSP10 (11751237_a_at) / Fold change /veh DUSP10 (11751237_a_at) / RFU ID3 (11757404_x_at) / Fold change /veh ID3 (11757404_x_at) / RFU PLEKHG5 (11737974_s_at) / Fold change /veh PLEKHG5 (11737974_s_at) / RFU LRRC4B (11730491_at) / Fold change /veh LRRC4B (11730491_at) / RFU GIMAP4 (11747438_a_at) / Fold change /veh GIMAP4 (11747438_a_at) / RFU KRT8 (11758183_x_at) / Fold change /veh KRT8 (11758183_x_at) / RFU CNN1 (11734310_a_at) / Fold change /veh CNN1 (11734310_a_at) / RFU VPS37D (11726825_at) / Fold change /veh VPS37D (11726825_at) / RFU C10orf10 (11716522_x_at) / Fold change /veh C10orf10 (11716522_x_at) / RFU KIR2DL2 /// KIR2DL4 /// KIR2DL5A /// KIR2DL5B /// KIR2DS1 /// KIR2DS2 /// KIR2DS3 /// KIR2DS4 /// KIR3DL3 /// KIR3DL3 /// KIR3DS1 (11738374_at) / Fold change /veh KIR2DL2 /// KIR2DL4 /// KIR2DL5A /// KIR2DL5B /// KIR2DS1 /// KIR2DS2 /// KIR2DS3 /// KIR2DS4 /// KIR3DL3 /// KIR3DL3 /// KIR3DS1 (11738374_at) / RFU C1QL1 (11718748_at) / Fold change /veh C1QL1 (11718748_at) / RFU TMPRSS4 (11747572_a_at) / Fold change /veh TMPRSS4 (11747572_a_at) / RFU HAMP (11756126_x_at) / Fold change /veh HAMP (11756126_x_at) / RFU RNFT2 (11725882_a_at) / Fold change /veh RNFT2 (11725882_a_at) / RFU NR4A2 (11747474_a_at) / Fold change /veh NR4A2 (11747474_a_at) / RFU ABCC12 (11746883_a_at) / Fold change /veh ABCC12 (11746883_a_at) / RFU TMEM136 (11760407_x_at) / Fold change /veh TMEM136 (11760407_x_at) / RFU CLDN22 /// WWC2 (11732394_at) / Fold change /veh CLDN22 /// WWC2 (11732394_at) / RFU HLA-DPB1 (11760878_x_at) / Fold change /veh HLA-DPB1 (11760878_x_at) / RFU SPINT1 (11716480_a_at) / Fold change /veh SPINT1 (11716480_a_at) / RFU GAP43 (11754022_s_at) / Fold change /veh GAP43 (11754022_s_at) / RFU A4GNT (11735810_at) / Fold change /veh A4GNT (11735810_at) / RFU PRB3 (11715151_x_at) / Fold change /veh PRB3 (11715151_x_at) / RFU TUBB4B (11761932_at) / Fold change /veh TUBB4B (11761932_at) / RFU CAPN14 (11732068_a_at) / Fold change /veh CAPN14 (11732068_a_at) / RFU TMCC2 (11721928_a_at) / Fold change /veh TMCC2 (11721928_a_at) / RFU IRGQ (11745062_a_at) / Fold change /veh IRGQ (11745062_a_at) / RFU FAM174B (11720279_a_at) / Fold change /veh FAM174B (11720279_a_at) / RFU TMPRSS4 (11748680_a_at) / Fold change /veh TMPRSS4 (11748680_a_at) / RFU FAM212B (11763350_a_at) / Fold change /veh FAM212B (11763350_a_at) / RFU PLEKHG5 (11743358_a_at) / Fold change /veh PLEKHG5 (11743358_a_at) / RFU ZSCAN30 (11745921_a_at) / Fold change /veh ZSCAN30 (11745921_a_at) / RFU CMKLR1 (11741424_a_at) / Fold change /veh CMKLR1 (11741424_a_at) / RFU LOC101060620 /// MAPK8IP1 (11723275_at) / Fold change /veh LOC101060620 /// MAPK8IP1 (11723275_at) / RFU SPTSSB (11747773_x_at) / Fold change /veh SPTSSB (11747773_x_at) / RFU PRSS12 (11739890_at) / Fold change /veh PRSS12 (11739890_at) / RFU BIN1 (11741810_x_at) / Fold change /veh BIN1 (11741810_x_at) / RFU WNT11 (11732464_a_at) / Fold change /veh WNT11 (11732464_a_at) / RFU C10orf10 (11716521_a_at) / Fold change /veh C10orf10 (11716521_a_at) / RFU C5orf56 (11738089_at) / Fold change /veh C5orf56 (11738089_at) / RFU CYB561 (11721691_x_at) / Fold change /veh CYB561 (11721691_x_at) / RFU ANKRD19P (11752326_a_at) / Fold change /veh ANKRD19P (11752326_a_at) / RFU OR2T12 /// OR2T33 /// OR2T8 (11738714_s_at) / Fold change /veh OR2T12 /// OR2T33 /// OR2T8 (11738714_s_at) / RFU VCAN (11748164_a_at) / Fold change /veh VCAN (11748164_a_at) / RFU JSRP1 (11732532_at) / Fold change /veh JSRP1 (11732532_at) / RFU KRTAP10-11 (11738290_x_at) / Fold change /veh KRTAP10-11 (11738290_x_at) / RFU MYO3A (11730013_a_at) / Fold change /veh MYO3A (11730013_a_at) / RFU EBF3 (11725865_a_at) / Fold change /veh EBF3 (11725865_a_at) / RFU CAMK2N1 (11719241_x_at) / Fold change /veh CAMK2N1 (11719241_x_at) / RFU C5orf56 (11738088_a_at) / Fold change /veh C5orf56 (11738088_a_at) / RFU OLFML3 (11715873_a_at) / Fold change /veh OLFML3 (11715873_a_at) / RFU LOC100653217 /// NTM (11731650_a_at) / Fold change /veh LOC100653217 /// NTM (11731650_a_at) / RFU MAPK11 (11762145_a_at) / Fold change /veh MAPK11 (11762145_a_at) / RFU FIZ1 (11724087_x_at) / Fold change /veh FIZ1 (11724087_x_at) / RFU OASL (11726364_x_at) / Fold change /veh OASL (11726364_x_at) / RFU SOX15 (11748057_x_at) / Fold change /veh SOX15 (11748057_x_at) / RFU CD79A (11719716_a_at) / Fold change /veh CD79A (11719716_a_at) / RFU HIST1H1D (11736915_at) / Fold change /veh HIST1H1D (11736915_at) / RFU CASKIN2 (11723855_a_at) / Fold change /veh CASKIN2 (11723855_a_at) / RFU LOC730098 (11760151_x_at) / Fold change /veh LOC730098 (11760151_x_at) / RFU OR4N2 (11742367_at) / Fold change /veh OR4N2 (11742367_at) / RFU PRRT2 (11749266_a_at) / Fold change /veh PRRT2 (11749266_a_at) / RFU SNX32 (11753110_a_at) / Fold change /veh SNX32 (11753110_a_at) / RFU CDHR5 (11726645_a_at) / Fold change /veh CDHR5 (11726645_a_at) / RFU RCAN1 (11760418_a_at) / Fold change /veh RCAN1 (11760418_a_at) / RFU FAM167A (11723789_a_at) / Fold change /veh FAM167A (11723789_a_at) / RFU FAM26E (11764081_at) / Fold change /veh FAM26E (11764081_at) / RFU ISYNA1 (11749810_s_at) / Fold change /veh ISYNA1 (11749810_s_at) / RFU ACY1 (11761880_at) / Fold change /veh ACY1 (11761880_at) / RFU 11764098_at / Fold change /veh 11764098_at / RFU SAMD14 (11745864_x_at) / Fold change /veh SAMD14 (11745864_x_at) / RFU NPB (11741838_a_at) / Fold change /veh NPB (11741838_a_at) / RFU TMPRSS6 (11731388_a_at) / Fold change /veh TMPRSS6 (11731388_a_at) / RFU KRTAP10-2 (11738614_at) / Fold change /veh KRTAP10-2 (11738614_at) / RFU ARHGAP8 /// PRR5-ARHGAP8 (11727945_x_at) / Fold change /veh ARHGAP8 /// PRR5-ARHGAP8 (11727945_x_at) / RFU KRTAP5-7 /// NADSYN1 (11734609_at) / Fold change /veh KRTAP5-7 /// NADSYN1 (11734609_at) / RFU RASL12 (11751679_a_at) / Fold change /veh RASL12 (11751679_a_at) / RFU CDKN2B (11736163_a_at) / Fold change /veh CDKN2B (11736163_a_at) / RFU PRF1 (11729649_at) / Fold change /veh PRF1 (11729649_at) / RFU, ZNF638 /// ZNF638-IT1 / Fold change vs veh, ZNF638 /// ZNF638-IT1 / RFU, PANK3 / Fold change vs veh, PANK3 / RFU, SH3YL1 / Fold change vs veh, SH3YL1 / RFU, ZEB2 / Fold change vs veh, ZEB2 / RFU, NRIP1 / Fold change vs veh, NRIP1 / RFU, PTTG1IP / Fold change vs veh, PTTG1IP / RFU, CAPN2 / Fold change vs veh, CAPN2 / RFU, MED14 / Fold change vs veh, MED14 / RFU, SNORA58 / Fold change vs veh, SNORA58 / RFU, C1orf63 / Fold change vs veh, C1orf63 / RFU, LRRFIP1 / Fold change vs veh, LRRFIP1 / RFU, NDUFAF7 / Fold change vs veh, NDUFAF7 / RFU, SLC12A2 / Fold change vs veh, SLC12A2 / RFU, IBTK / Fold change vs veh, IBTK / RFU, ESF1 / Fold change vs veh, ESF1 / Fold change vs veh, TMEM50B / RFU, TAOK1 / Fold change vs veh, TAOK1 / RFU, ACBD3 / Fold change vs veh, ACBD3 / RFU, TMA16 / Fold change vs veh, TMA16 / RFU, RWDD3 / Fold change vs veh, RWDD3 / RFU, BCAT1 / Fold change vs veh, BCAT1 / RFU, EDEM3 / Fold change vs veh, EDEM3 / RFU, TMEM33 / Fold change vs veh, TMEM33 / RFU, WDR75 / Fold change vs veh, WDR75 / RFU, AHCTF1 / Fold change vs veh, AHCTF1 / RFU, TFRC / Fold change vs veh, TFRC / RFU, ZDHHC17 / Fold change vs veh, ZDHHC17 / RFU, NOM1 / Fold change vs veh, NOM1 / RFU, ARL8B / Fold change vs veh, ARL8B / RFU, ZBTB11 / Fold change vs veh, ZBTB11 / RFU, TAMM41 / Fold change vs veh, TAMM41 / RFU, KIAA1704 /// LOC100996395 / Fold change vs veh, KIAA1704 /// LOC100996395 / RFU, ING1 / Fold change vs veh, ING1 / RFU, TRMT61B / Fold change vs veh, TRMT61B / RFU, FUBP3 / Fold change vs veh, FUBP3 / RFU, TP53 / Fold change vs veh, TP53 / RFU, TNKS2 / Fold change vs veh, TNKS2 / RFU, ZFP14 / Fold change vs veh, ZFP14 / RFU, ACTR2 / Fold change vs veh, ACTR2 / RFU, PPP3R1 / Fold change vs veh, PPP3R1 / RFU, PIK3R1 / Fold change vs veh, PIK3R1 / RFU, HNRNPA1 / Fold change vs veh, HNRNPA1 / RFU, RNF170 / Fold change vs veh, RNF170 / RFU, ZNF28 / Fold change vs veh, ZNF28 / RFU, RNGTT / Fold change vs veh, RNGTT / RFU, OGT / Fold change vs veh, OGT / RFU, BRD1 / Fold change vs veh, BRD1 / RFU, MARS / Fold change vs veh, MARS / RFU, ZNF655 / Fold change vs veh, ZNF655 / RFU, FAHD1 / Fold change vs veh, FAHD1 / RFU, BDP1 / Fold change vs veh, BDP1 / RFU, LRRCC1 / Fold change vs veh, LRRCC1 / RFU, ARID1A / Fold change vs veh, ARID1A / RFU, ZNF146 / Fold change vs veh, ZNF146 / RFU, ZNF330 / Fold change vs veh, ZNF330 / RFU, GPN3 / Fold change vs veh, GPN3 / RFU, C9orf123 / Fold change vs veh, C9orf123 / RFU, N4BP2L2 / Fold change vs veh, N4BP2L2 / RFU, ARFIP1 / Fold change vs veh, ARFIP1 / RFU, FAM179B / Fold change vs veh, FAM179B / RFU, BCL10 / Fold change vs veh, BCL10 / RFU, UHRF1BP1L / Fold change vs veh, UHRF1BP1L / RFU, BET1 / Fold change vs veh, BET1 / RFU, CNOT2 / Fold change vs veh, CNOT2 / RFU, ZNF268 / Fold change vs veh, ZNF268 / Fold change vs veh, ZNF507 / RFU, DGCR2 / Fold change vs veh, DGCR2 / RFU, WDSUB1 / Fold change vs veh, WDSUB1 / Fold change vs veh, HSP90B1 /// MIR3652 / RFU, ADSS / Fold change vs veh, ADSS / RFU, GK / Fold change vs veh, GK / RFU, ZNF148 / Fold change vs veh, ZNF148 / RFU, TAF9 / Fold change vs veh, TAF9 / RFU, SLC1A5 / Fold change vs veh, SLC1A5 / RFU, SLMO2 / Fold change vs veh, SLMO2 / RFU, ABCC4 / Fold change vs veh, ABCC4 / RFU, LOC101060439 /// RAP1B / Fold change vs veh, LOC101060439 /// RAP1B / RFU, RFX7 / Fold change vs veh, RFX7 / RFU, GTPBP10 / Fold change vs veh, GTPBP10 / RFU, CNEP1R1 / Fold change vs veh, CNEP1R1 / RFU, BIVM-ERCC5 /// ERCC5 / Fold change vs veh, BIVM-ERCC5 /// ERCC5 / RFU, ILF3 / Fold change vs veh, ILF3 / RFU 11762660_at / Fold change /veh 11762660_at / RFU VCAN (11757783_s_at) / Fold change /veh VCAN (11757783_s_at) / RFU DDX43 (11728927_at) / Fold change /veh DDX43 (11728927_at) / RFU KRT8 (11758188_x_at) / Fold change /veh KRT8 (11758188_x_at) / RFU NKD1 (11759106_at) / Fold change /veh NKD1 (11759106_at) / RFU SRD5A1 (11742802_a_at) / Fold change /veh SRD5A1 (11742802_a_at) / RFU TPSAB1 /// TPSB2 (11721975_s_at) / Fold change /veh TPSAB1 /// TPSB2 (11721975_s_at) / RFU GSTM3 (11746129_a_at) / Fold change /veh GSTM3 (11746129_a_at) / RFU IL23R (11737362_x_at) / Fold change /veh IL23R (11737362_x_at) / RFU TMEM51 (11727254_a_at) / Fold change /veh TMEM51 (11727254_a_at) / RFU PIWIL2 (11732686_x_at) / Fold change /veh PIWIL2 (11732686_x_at) / RFU ORM1 (11744905_x_at) / Fold change /veh ORM1 (11744905_x_at) / RFU CCDC152 (11743942_at) / Fold change /veh CCDC152 (11743942_at) / RFU ECM1 (11717891_a_at) / Fold change /veh ECM1 (11717891_a_at) / RFU IL23R (11748794_a_at) / Fold change /veh IL23R (11748794_a_at) / RFU TNFAIP8L3 (11732012_x_at) / Fold change /veh TNFAIP8L3 (11732012_x_at) / RFU MBOAT4 (11741988_at) / Fold change /veh MBOAT4 (11741988_at) / RFU 11764193_at / Fold change /veh 11764193_at / RFU TMEM53 (11763286_at) / Fold change /veh TMEM53 (11763286_at) / RFU MAGEB2 (11727129_at) / Fold change /veh MAGEB2 (11727129_at) / RFU TMEM200A (11744735_a_at) / Fold change /veh TMEM200A (11744735_a_at) / RFU CCDC152 (11751479_a_at) / Fold change /veh CCDC152 (11751479_a_at) / RFU FAM211A (11726209_a_at) / Fold change /veh FAM211A (11726209_a_at) / RFU RGS16 (11746705_a_at) / Fold change /veh RGS16 (11746705_a_at) / RFU VCAN (11755009_s_at) / Fold change /veh VCAN (11755009_s_at) / RFU RHOB (11743442_s_at) / Fold change /veh RHOB (11743442_s_at) / RFU RGS16 (11720943_a_at) / Fold change /veh RGS16 (11720943_a_at) / RFU RGS16 (11720944_at) / Fold change /veh RGS16 (11720944_at) / RFU, VPS4B / Fold change vs veh, VPS4B / RFU, CREB1 / Fold change vs veh, CREB1 / RFU, DNAJC13 / Fold change vs veh, DNAJC13 / RFU, GNAQ / Fold change vs veh, GNAQ / RFU, CDK5R1 / Fold change vs veh, CDK5R1 / RFU, ZRANB3 / Fold change vs veh, ZRANB3 / RFU, CUL4A / Fold change vs veh, CUL4A / RFU, CCNY / Fold change vs veh, CCNY / RFU, UFL1 / Fold change vs veh, UFL1 / RFU, COG3 / Fold change vs veh, COG3 / RFU, DIAPH2 / Fold change vs veh, DIAPH2 / RFU, SKA2 / Fold change vs veh, SKA2 / RFU, AFF3 / Fold change vs veh, AFF3 / RFU, LMF1 / Fold change vs veh, LMF1 / RFU, IPO11 / Fold change vs veh, IPO11 / RFU, DFFB / Fold change vs veh, DFFB / RFU, FOXP1 / Fold change vs veh, FOXP1 / RFU, CARD8 / Fold change vs veh, CARD8 / RFU, STRN3 / Fold change vs veh, STRN3 / RFU, ADK / Fold change vs veh, ADK / RFU, RASSF2 / Fold change vs veh, RASSF2 / RFU, WIPF1 / Fold change vs veh, WIPF1 / RFU, LARP1B / Fold change vs veh, LARP1B / RFU, RASA1 / Fold change vs veh, RASA1 / RFU, RB1 / Fold change vs veh, RB1 / RFU, PPFIA1 / Fold change vs veh, PPFIA1 / RFU, MAT2A / Fold change vs veh, MAT2A / RFU, CCT5 / Fold change vs veh, CCT5 / RFU, WDR92 / Fold change vs veh, WDR92 / RFU, CUX1 / Fold change vs veh, CUX1 / RFU, TTC7A / Fold change vs veh, TTC7A / RFU, TMEM135 / Fold change vs veh, TMEM135 / RFU, DEPTOR / Fold change vs veh, DEPTOR / RFU, CPM / Fold change vs veh, CPM / RFU, DNAJB6 / Fold change vs veh, DNAJB6 / RFU, CACNA2D3 / Fold change vs veh, CACNA2D3 / RFU, DTX4 / Fold change vs veh, DTX4 / RFU, TFCP2 / Fold change vs veh, TFCP2 / RFU, GMCL1 /// GMCL1P1 / Fold change vs veh, GMCL1 /// GMCL1P1 / RFU, AEBP2 / Fold change vs veh, AEBP2 / RFU, SNHG1 /// SNORD22 /// SNORD25 /// SNORD26 /// SNORD27 /// SNORD28 /// SNORD29 /// SNORD31 / Fold change vs veh, SNHG1 /// SNORD22 /// SNORD25 /// SNORD26 /// SNORD27 /// SNORD28 /// SNORD29 /// SNORD31 / Fold change (Aza/veh), C12orf56 (ProbeSet 11735607_a_at) / Fold change (ACY-1035/veh), C12orf56 (ProbeSet 11735607_a_at) / Fold change (Aza/veh), FGFR1OP (ProbeSet 11751329_s_at) / Fold change (ACY-1035/veh), FGFR1OP (ProbeSet 11751329_s_at) / Fold change (Aza/veh), VPS36 (ProbeSet 11739960_a_at) / Fold change (ACY-1035/veh), VPS36 (ProbeSet 11739960_a_at) / RFU SYPL1 (11715823_x_at) / Fold change /veh SYPL1 (11715823_x_at) / RFU IGFBP7 (11715501_s_at) / Fold change /veh IGFBP7 (11715501_s_at) / RFU REEP3 (11722064_at) / Fold change /veh REEP3 (11722064_at) / RFU IGLL1 (11728026_x_at) / Fold change /veh IGLL1 (11728026_x_at): dose or concentration left out as unconfirmed
# Settings: ProbeSet 11720269_a_at; LIST B
smiles,measurement,value
Nc1ccc(-c2cccs2)cc1NC(=O)c1ccc2c(c1)cc(C1CC1)n2CCN1CCOCC1 [ACY-1035],"RFU, IBTK",758.00 RFU
